Data taken from patent US5955357A, “In-vitro-derived human neutrophil precursor cells” (Nexell Therapeutics Inc., priority 1994, dated 1999).

B1: G-CSF: hematopoietic growth factor, granulocyte colony-stimulating factor (protein, UniProt P09919 31-207, looked up)
Granulocyte …: TPLGPASSLPQSFLLKCLEQVRKIQGDGAALQEKLVSECATYKLCHPEELVLLGHSLGIPWAPLSSCPSQALQLAGCLSQLHSGLFLYQGLLQALEGISPELGPTLDTLQLDVADFATTIWQQMEELGMAPALQPTQGAMPAFASAFQRRAGGVLVASHLQSFLEVSYRVLRHLAQP

Test system: CD15+CD11b- neutrophil precursors
Assay: single cell proliferation assay of sorted neutrophil precursors in hematopoietic growth factors
Format: cell-based, human
Settings: after 10 days in culture; for Percent of Total Cells Evaluated, 0 Cells/Wells / Percent of Total Cells Evaluated, 1-4 Cells/Well / Percent of Total Cells Evaluated, 5-8 Cells/Well / Percent of Total Cells Evaluated, 9-16 Cells/Well / Percent of Total Cells Evaluated, 17-32 Cells/Well / Percent of Total Cells Evaluated, >32 Cells/Well: Table V, individual growth factors, neutrophil precursors
Procedure: Apheresis samples were collected after peripheral blood counts reached 1000/ul from patients mobilized with G-CSF (10 ug/kg/day) following cyclophosphamide/VP16 chemotherapy. Apheresis was performed using the CS-3000® blood cell separator (Fenwal Division, Baxter Healthcare, Deerfield, Ill.). Bone marrow was collected from normal volunteers.
The assays were performed by sorting single cells based upon expression of CD15 and CD11b by flow cytometry into multiwell plates containing 10 ul of culture media with various growth factor combinations. […] The same studies were performed on fresh bone marrow for comparison. Plates containing the sorted cells were incubated at 37° C. and the number of cells in each well were counted on days 1, 3 and 10. For further characterization of antigenic expression, cells at varying timepoints of culture were stained with the following antigenic combinations: FITC-CD15/PE-CD11b, FITC-CD71/PE-CD45RA,and FITC-CD67/PE-CD34.
To assess the absolute requirement of growth factors on the proliferation of neutrophil precursors, single cells were plated in the presence or absence of all four growth factors described above. The single cell cultures were incubated for an additional 10 days and then each well was scored for the number of total cells. The wells were categorized according to the number of cells per well.
To determine which single growth factor or combination of growth factors would support proliferation of neutrophil precursors, various combinations of the above growth factors were tested in the single cell proliferation assay.

Molecule | Percent of Total Cells Evaluated, 0 Cells/Wells [%] | Percent of Total Cells Evaluated, 1-4 Cells/Well [%] | Percent of Total Cells Evaluated, 5-8 Cells/Well [%] | Percent of Total Cells Evaluated, 9-16 Cells/Well [%] | Percent of Total Cells Evaluated, 17-32 Cells/Well [%] | Percent of Total Cells Evaluated, >32 Cells/Well [%] | fraction of proliferating neutrophil precursors and extent of proliferation, compared with other growth factors (result in words)
SCF: hematopoietic growth factor, stem cell factor | 25 | 52 | 13 | 8 | 2 | 1 | 
GM-CSF: hematopoietic growth factor, granulocyte and macrophage colony-stimulating factor | 33 | 44 | 12 | 6 | 4 | 1 | 
B1 | 22 | 40 | 10 | 10 | 6 | 13 | enhances proliferation to a greater extent then either GM-CSF, IL-3 or SCF alone
